Experiments:
green foxtail [1] = test: Test C postemergence; type: in vivo, Setaria viridis; details: 10 days, 0 to 100 scale (0 no effect, 100 complete control)
Summary of the method: (§1)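 Pre: seeds in loam/sand, directed soil spray. Post: 1–2 leaf plants, 2–10 cm. Cmpd in non-phytotoxic solvent + surfactant. Greenhouse 10 d; visual rating vs untreated, 0 = none, 100 = complete control.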

corn [2] = test: Test C postemergence; type: in vivo, Zea mays; details: 10 days, 0 to 100 scale (0 no effect, 100 complete control)
Summary of the method: as §1

blackgrass [3] = test: Test C preemergence; type: in vivo, Alopecurus myosuroides
Summary of the method: as §1

rice = test: Test D flooded paddy test; type: in vivo, Oryza sativa; details: 250 g ai/ha, applied to paddy water, visual rating after 13 to 14 days, scale 0 to 100 (0 no effect, 100 complete control)
Summary of the method: (§2)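 Compounds go straight into paddy water over 2-leaf plants in pots flooded to 3 cm. Greenhouse holding lasts 13 to 14 days. Injury is scored by eye against controls from 0 (none) to 100 (complete control).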

pigweed, palmer [4] = test: Test C postemergence; type: in vivo, Amaranthus palmeri; details: 500 g ai/ha, postemergence, 10 days, 0 to 100 scale (0 no effect, 100 complete control)
Summary of the method: as §1

ragweed [5] = test: Test C postemergence; type: in vivo, Ambrosia artemisiifolia; details: 10 days, 0 to 100 scale (0 no effect, 100 complete control)
Summary of the method: as §1

soybean [6] = test: Test C preemergence; type: in vivo, Glycine max
Summary of the method: as §1

horseweed = test: Test C postemergence; type: in vivo, Erigeron canadensis; details: 10 days, 0 to 100 scale (0 no effect, 100 complete control)
Summary of the method: as §1

ragweed [7] = test: Test C preemergence; type: in vivo, Ambrosia artemisiifolia
Summary of the method: as §1

kochia [8] = test: Test C postemergence; type: in vivo, Bassia scoparia; details: 10 days, 0 to 100 scale (0 no effect, 100 complete control)
Summary of the method: as §1

oat, wild [9] = test: Test C postemergence; type: in vivo, Avena fatua; details: 10 days, 0 to 100 scale (0 no effect, 100 complete control)
Summary of the method: as §1

blackgrass [10] = test: Test C postemergence; type: in vivo, Alopecurus myosuroides; details: 10 days, 0 to 100 scale (0 no effect, 100 complete control)
Summary of the method: as §1

corn [11] = test: Test C preemergence; type: in vivo, Zea mays
Summary of the method: as §1

sedge, umbrella = test: Test D flooded paddy test; type: in vivo, Cyperus difformis; details: 250 g ai/ha, applied to paddy water, visual rating after 13 to 14 days, scale 0 to 100 (0 no effect, 100 complete control)
Summary of the method: as §2

galium = test: Test C postemergence; type: in vivo, Galium aparine; details: 10 days, 0 to 100 scale (0 no effect, 100 complete control)
Summary of the method: as §1

barnyardgrass [12] = test: Test C postemergence; type: in vivo, Echinochloa crusgalli; details: 10 days, 0 to 100 scale (0 no effect, 100 complete control)
Summary of the method: as §1

green foxtail [13] = test: Test C preemergence; type: in vivo, Setaria viridis
Summary of the method: as §1

oat, wild [14] = test: Test C preemergence; type: in vivo, Avena fatua
Summary of the method: as §1

barnyardgrass [15] = test: Test D flooded paddy test; type: in vivo, Echinochloa crus-galli; details: 250 g ai/ha, applied to paddy water, visual rating after 13 to 14 days, scale 0 to 100 (0 no effect, 100 complete control)
Summary of the method: as §2

ryegrass, Italian [16] = test: Test C preemergence; type: in vivo, Lolium multiflorum; details: 500 g ai/ha, preemergence; 0 to 100 scale (0 no effect, 100 complete control)
Summary of the method: as §1

kochia [17] = test: Test C preemergence; type: in vivo, Bassia scoparia
Summary of the method: as §1

barnyardgrass [18] = test: Test C preemergence; type: in vivo, Echinochloa crusgalli
Summary of the method: as §1

wheat [19] = test: Test C postemergence; type: in vivo, Triticum aestivum; details: 10 days, 0 to 100 scale (0 no effect, 100 complete control)
Summary of the method: as §1

ducksalad = test: Test D flooded paddy test; type: in vivo, Heteranthera limosa; details: 250 g ai/ha, applied to paddy water, visual rating after 13 to 14 days, scale 0 to 100 (0 no effect, 100 complete control)
Summary of the method: as §2

pigweed, palmer [20] = test: Test C preemergence; type: in vivo, Amaranthus palmeri; details: 500 g ai/ha, preemergence; 0 to 100 scale (0 no effect, 100 complete control)
Summary of the method: as §1

wheat [21] = test: Test C preemergence; type: in vivo, Triticum aestivum
Summary of the method: as §1

ryegrass, Italian [22] = test: Test C postemergence; type: in vivo, Lolium multiflorum; details: 10 days, 0 to 100 scale (0 no effect, 100 complete control)
Summary of the method: as §1

soybean [23] = test: Test C postemergence; type: in vivo, Glycine max; details: 10 days, 0 to 100 scale (0 no effect, 100 complete control)
Summary of the method: as §1

[24] = 500 g ai/ha, preemergence, 0 to 100 scale (0 no effect, 100 complete control)
[25] = Preemergence, 125 g ai/ha, 0 to 100 scale, 0 no effect, 100 complete control

Cc1ncc(-c2cccc(C(=O)N3C[C@H](C)Oc4c(Cl)cccc43)c2)o1 [Compound 352]
Plant response rating, Foxtail, Green (green foxtail [1]; 500 g ai/ha, postemergence): 10 | Plant response rating, Foxtail, Green (green foxtail [1]; Postemergence, 125 g ai/ha): 20 | Plant response rating, Corn (corn [2]; 500 g ai/ha, postemergence): 0 | Plant response rating, Corn (corn [2]; Postemergence, 125 g ai/ha): 0 | Blackgrass plant response rating (blackgrass [3]; [24]): 0 | Plant response rating, Blackgrass (blackgrass [3]; [25]): 0 | Plant response rating, Rice (Flood) (rice): 0 | Plant response rating, Pigweed, Palmer (pigweed, palmer [4]): 20 | Plant response rating, Ragweed (ragweed [5]; 500 g ai/ha, postemergence): 20 | Plant response rating, Ragweed (ragweed [5]; Postemergence, 125 g ai/ha): 20 | Soybean plant response rating (soybean [6]; [24]): 0 | Plant response rating, Soybean (soybean [6]; [25]): 0 | Plant response rating, Horseweed (horseweed; 500 g ai/ha, postemergence): 10 | Plant response rating, Horseweed (horseweed; Postemergence, 125 g ai/ha): 0 | Ragweed plant response rating (ragweed [7]; [24]): 0 | Plant response rating, Ragweed (ragweed [7]; [25]): 40 | Plant response rating, Kochia (kochia [8]; 500 g ai/ha, postemergence): 50 | Plant response rating, Kochia (kochia [8]; Postemergence, 125 g ai/ha): 40 | Plant response rating, Oat, Wild (oat, wild [9]; 500 g ai/ha, postemergence): 0 | Plant response rating, Oat, Wild (oat, wild [9]; Postemergence, 125 g ai/ha): 0 | Plant response rating, Blackgrass (blackgrass [10]; 500 g ai/ha, postemergence): 0 | Plant response rating, Blackgrass (blackgrass [10]; Postemergence, 125 g ai/ha): 0 | Corn plant response rating (corn [11]; [24]): 0 | Plant response rating, Corn (corn [11]; [25]): 0 | Plant response rating, Sedge, Umbrella (Flood) (sedge, umbrella): 0 | Plant response rating, Galium (galium; 500 g ai/ha, postemergence): 50 | Plant response rating, Galium (galium; Postemergence, 125 g ai/ha): 60 | Plant response rating, Barnyardgrass (barnyardgrass [12]; 500 g ai/ha, postemergence): 10 | Plant response rating, Barnyardgrass (barnyardgrass [12]; Postemergence, 125 g ai/ha): 10 | Foxtail, Green plant response rating (green foxtail [13]; [24]): 40 | Plant response rating, Foxtail, Green (green foxtail [13]; [25]): 0 | Oat, Wild plant response rating (oat, wild [14]; [24]): 0 | Plant response rating, Oat, Wild (oat, wild [14]; [25]): 0 | Plant response rating, Barnyardgrass (Flood) (barnyardgrass [15]): 0 | Ryegrass, Italian plant response rating (ryegrass, Italian [16]): 40 | Kochia plant response rating (kochia [17]; [24]): 0 | Plant response rating, Kochia (kochia [17]; [25]): 0 | Barnyardgrass plant response rating (barnyardgrass [18]; [24]): 0 | Plant response rating, Barnyardgrass (barnyardgrass [18]; [25]): 0 | Plant response rating, Wheat (wheat [19]; 500 g ai/ha, postemergence): 10 | Plant response rating, Wheat (wheat [19]; Postemergence, 125 g ai/ha): 10 | Plant response rating, Ducksalad (Flood) (ducksalad): 0 | Pigweed, Palmer plant response rating (pigweed, palmer [20]): 10 | Wheat plant response rating (wheat [21]; [24]): 0 | Plant response rating, Wheat (wheat [21]; [25]): 0 | Plant response rating, Ryegrass, Italian (ryegrass, Italian [22]; 500 g ai/ha, postemergence): 10 | Plant response rating, Ryegrass, Italian (ryegrass, Italian [22]; Postemergence, 125 g ai/ha): 10 | Plant response rating, Soybean (soybean [23]; 500 g ai/ha, postemergence): 90 | Plant response rating, Soybean (soybean [23]; Postemergence, 125 g ai/ha): 80
